Measurements as given in patent publication US20160237146A1, “Methods of Preventing or Reducing Photoreceptor Cell Death” (MASSACHUSETTS EYE AND EAR INFIRMARY, priority 2013, published 2016).
“Also recorded” adds a separate entry of the source.

Key:
[1] = system: photoreceptor cell death in response to RD; assay: Mouse model of retinal detachment, TUNEL labeling of the ONL; format: in vivo, mice
Protocol: Briefly, RD was created in the right eye of adult mice (8-12 weeks), as previously reported (Hisatomi, T. et al., Am J Pathol, 2001, 158:1271-1278), with minor modification. Briefly, mice were anesthetized using a mixture of ketamine (80 mg/kg) and xylazine (8 mg/kg). Deep anesthesia was confirmed by a toe pinch test. One drop of proparacaine hydrochloride (0.5%) (Akorn, 17478-263-12) was administered to each eye. A self-sealing scleral incision was made using a 30 G needle. Next, an anterior chamber puncture was performed from the cornea to reduce intraocular pressure. A 33 G needle attached to a Hamilton 10 μl syringe was inserted into the subretinal space, and 4 μl sodium hyaluronate (Provisc®, Alcon) was gently injected to enlarge the RD (fundus Image of a retinal detachment; FIG. 7A) (Matsumoto, H. et al., J Vis Exp, 2013, (79)). After the injection, glue (Webglue™) was put on the scleral wound and the conjunctiva reattached to the original position. Photoreceptor apoptosis was assessed (12-72 hours post detachment) by identifying TUNEL positive cells in cross sections (FIGS. 7C and D).
Twenty-four hours post-injury, retinas were isolated and cross-sections were prepared for staining with DAPI (a nuclear marker) and TUNEL (a cell death marker). The mid-point of the retinal arc between the optic nerve and the edge of the retina was quantified for TUNEL positive cells.
The model of retinal detachment was performed precisely as described above with one modification: Prior to injecting the provisc 1 μl of the purified C3 antibody (0.1 μg) or IgG2a isotype control (Life Technologies, 02-9688) was injected into the sub-retinal space through the scleral tunnel. The eyes were enucleated 24 hours after RD and processed for TUNEL labeling as described earlier.

Fb = conditions: retina 24 hours after RD, mice kept in 75% oxygen vs room air
Protocol: RNA was isolated using an RNeasy micro kit (Qiagen, 74004, Valencia, Calif.) for LCM samples or an RNeasy mini kit (Qiagen, 74106, Valencia, Calif.) for whole retina. Total RNA was measured using a nanodrop spectrophotometer (Thermo Scientific, Nanodrop 2000, Waltham, Mass.) then each sample was normalized prior to transcribing cDNA. cDNA was transcribed using superscript III (Invitrogen, 18080-044, Carlsbad, Calif.) then one microliter of cDNA was used for each RTPCR reaction. […] Primers for Cd55 using photoreceptors isolated by LCM were obtained through Integrated DNA Technologies using their online Primer Quest design tool and importing the NCBI ID number for the sequence (Forward 5′-[sequence]-3′ (SEQ ID NO: 5) and Reverse 5′-[sequence]-3′ (SEQ ID NO: 6)). RTPCR was run in triplicate and the average of each CT value used for analysis. All CT values were normalized to beta actin from each sample as an internal control. Final values were determined using the MET method.
After 24 hours the mice were anesthetized under a heavy dose of avertin (2,2,2 tribromo ethanol, Sigma, T4, 840-2) at a working concentration of 10 mg/ml and injected at a dose of 0.25-0.5 mg/gram intraperitoneally. In one group the eyes were enucleated and frozen in OCT compound using isopropanol chilled by dry ice. The eyes were then processed for TUNEL labeling and quantified as described above. […]

O=O [75% oxygen, oxygen]
cell death (TUNEL positive cells in the ONL) ([1]; mice housed 24 hours after RD in a 75% oxygen chamber vs room air (approximately 21% oxygen)): significant reduction in cell death | Fb expression, alternative pathway activation (Fb): significantly less Fb expression

cobra venom factor [CVF]
photoreceptor cell death (TUNEL positive cells in the ONL) ([1]; C3-/- mice, sub-retinal injection prior to Provisc, 24 hours after RD, vs PBS): significant up-regulation of photoreceptor cell death; also recorded: increased photoreceptor cell death after RD
